Numbers after ± are expanded uncertainties.
Assays:
[1] = Crystal; DTA
[2] = Molar enthalpy of transition or fusion; settings: Crystal; DSC

Cn1cc([N+](=O)[O-])cn1 [1-methyl-4-nitropyrazole]
Normal melting temperature [1]: 92.00 ± 1.1 °C
Molar enthalpy of transition or fusion [2]: 2.36 ± 0.112 kcal/mol

From the NIST ThermoML archive (doi:10.1016/j.fluid.2018.05.023)
